Columns and labels:
[1] = molecular target: T1, human RORgt nuclear receptor (RORgT ligand binding domain protein) (Homo sapiens, UniProt P51449); assay: ROR-gamma binding assay (Scintillation Proximity Assay, displacement of [3H]-25-hydroxycholesterol); settings: EC50, SPA, 15 nM [3H]-25-Hydroxycholesterol, RORgT LBD 12 nM
T1 construct: purchased Proteros Biostructures GmbH
T1 sequence (P51449 with tags, fused parts or gaps): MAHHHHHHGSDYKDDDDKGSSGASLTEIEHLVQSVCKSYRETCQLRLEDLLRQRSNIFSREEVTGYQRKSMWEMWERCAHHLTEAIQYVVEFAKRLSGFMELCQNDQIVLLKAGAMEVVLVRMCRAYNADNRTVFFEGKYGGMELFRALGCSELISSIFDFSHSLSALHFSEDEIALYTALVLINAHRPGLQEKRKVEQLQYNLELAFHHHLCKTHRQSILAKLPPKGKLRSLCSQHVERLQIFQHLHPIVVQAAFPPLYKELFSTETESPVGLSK
Method: This assay is used to evaluate the binding affinity of compounds to the ligand-binding pocket of the human RORgt nuclear receptor based on displacement of a radio-ligand. The EC50 values are calculated using a four parameter fit. Compounds binding with high affinity to RORgt will have low EC50 values.
The assay is a Scintillation Proximity Assay (SPA) that involves competition between an unlabeled test compound and tritium-labeled 25-hydroxycholesterol for binding to RORgT ligand binding domain (LBD) protein immobilized on the surface of SPA beads. These beads contain a scintillant that emits light if excited by a radioactive particle, and this light is detected using a scintillation counter. In this assay, tritium-labelled 25-hydroxycholesterol is used as radiotracer.
400 nL of titrated test and reference compounds in DMSO were transferred by the Echo liquid handling system to a 384-well assay plate followed by addition of 5 μL [3H]-25-Hydroxycholesterol (Perkin Elmer) and 35 μL diluted RORgT LBD protein with the following amino acid sequence (HIS-FLG-tag): MAHHHHHHGSDYKDDDDKGSSGASLTEIEHLVQSVCKSYRETCQLRLEDLLRQRSNIFSREEVTGYQRKSMWEMWERCAHHLTEAIQYVVEFAKRLSGFMELCQNDQIVLLKAGAMEVVLVRMCRAYNADNRTVFFEGKYGGMELFRALGCSELISSIFDFSHSLSALHFSEDEIALYTALVLINAHRPGLQEKRKVEQLQYNLELAFHHHLCKTHRQSILAKLPPKGKLRSLCSQHVERLQIFQHLHPIVVQAAFPPLYKELFSTETESPVGLSK (SEQ ID NO: 1) (Purchased from Proteros Biostructures GmbH). After 30 min of preincubation, 40 μL of HIS-TAG PVT SPA beads (Perkin Elmer) were added. The plates were then incubated for minimum 4 hours at room temperature in darkness before measuring the SPA signal using a MicroBeta plate scintillation counter. Final assay conditions were: 50 mM HEPES pH 7.4, 150 mM NaCl, 5 mM MgCl2, 0.1% BSA, 4 μg/well HIS-TAG PVT SPA Beads, 30 ng/well RORgT LBD (equal to a final concentration of 12 nM), 15 nM [^3H]-25-Hydroxycholesterol, 0.5% DMSO and varying concentrations of test compound in a total volume of 80 μL/well. EC50 values were calculated using a 4-parameter non-linear regression curve-fitting model.

[2] = test system: IL-17A in Human peripheral mononuclear cells; assay: Human PBMC IL-17A assay; assay type: cell-based; settings: 72 h, EC50, antiCD3/antiCD28-coated beads, 3 days, alpha-LISA
Method: This assay measures the IL-17A inhibitory potential of test compounds in Human peripheral mononuclear cells.
Peripheral blood mononuclear cells (PBMC) were isolated from human buffy coats using density grade centrifugation (Lymphoprep, Medinor), washed twice in PBS and frozen at −150° C. for later use.
Test compounds were diluted in DMSO and 70 nL of titrated test and reference compounds were transferred by the Echo liquid handling system to a 384-well assay plate in to give a final concentration of 0.1% DMSO in the wells.
The PBMC were thawed, washed and suspended in RPMI-1640 supplemented with pen/strep, glutamax and 10% bovine calf serum. The cells were mixed with antiCD3/antiCD28-coated beads (1 cells pr one bead) (Milteney T-cell expansion kit), and immediately thereafter the cells were pipetted to the plate at 130,000c/well. The plate was incubated for 3 days in humidified air/CO2 (95%/5%) On day 3 the level of IL-17A in the culture supernatant is measured using alpha-LISA kit (Perkin Elmer). Cell viability was measured by adding 6 uL pr well Prestoblue© (Life Technologies) and incubating for 2 hours followed by fluorescent measurement (Ex535/Em615). EC50 values were calculated using a 4-parameter non-linear regression curve-fitting model. Donors may be pre-screened in order to select PBMC with a high secretion of IL-17A.

[3] = test system: IL-17A levels in human peripheral blood; assay: tissue or blood; assay type: cell-based; settings: 72 h, read-out: Human Whole blood IL-17A (nM)

Cc1cc(CN2CCN(C(=O)OC(C)(C)C)[C@@H](C)C2)c(C)c(Nc2nnc(-c3ccnn3C)o2)c1 [Example 31, tert-butyl (2S)-4-[[2,5-dimethyl-3-[[5-(2-methylpyrazol-3-yl)-1,3,4-oxadiazol-2-yl]amino]phenyl]methyl]-2-methyl-piperazine-1-carboxylate]
EC50 [1]: 0.0324 µM
EC50 [2]: 0.0635 µM
EC50 [3]: 231 nM

Cc1cc(CN2CCN(C(=O)OC(C)(C)C)[C@@H](C)C2)c(C)c(Nc2nnc(-c3ccno3)o2)c1 [Example 32, tert-butyl (2S)-4-[[3-[(5-isoxazol-5-yl-1,3,4-oxadiazol-2-yl)amino]-2,5-dimethyl-phenyl]methyl]-2-methyl-piperazine-1-carboxylate]
EC50 [1]: 0.0264 µM
EC50 [2]: 0.101 µM
EC50 [3]: 392 nM

Cc1cc(CN2CCN(C(=O)OC(C)(C)C)[C@@H](C)C2)c(C)c(Nc2nnc(-c3cnsn3)o2)c1 [Example 33, tert-butyl (2S)-4-[[2,5-dimethyl-3-[[5-(1,2,5-thiadiazol-3-yl)-1,3,4-oxadiazol-2-yl]amino]phenyl]methyl]-2-methyl-piperazine-1-carboxylate]
EC50 [1]: 0.0233 µM
EC50 [2]: 0.0452 µM
EC50 [3]: 126 nM

Cc1cc(CN2CCN(C(=O)OC(C)(C)C)[C@@H](C)C2)c(C)c(Nc2nnc(-c3nonc3C)o2)c1 [Example 34, tert-butyl (2S)-4-[[2,5-dimethyl-3-[[5-(4-methyl-1,2,5-oxadiazol-3-yl)-1,3,4-oxadiazol-2-yl]amino]phenyl]methyl]-2-methyl-piperazine-1-carboxylate]
EC50 [1]: 0.0246 µM
EC50 [2]: 0.0248 µM
EC50 [3]: 83.7 nM

Cc1cc(CN2CCN(C(=O)OC(C)C)[C@@H](C)C2)c(C)c(Nc2nnc(C)o2)c1 [Example 35, isopropyl (2S)-4-[[2,5-dimethyl-3-[(5-methyl-1,3,4-oxadiazol-2-yl)amino]phenyl]methyl]-2-methyl-piperazine-1-carboxylate]
EC50 [1]: 0.0339 µM
EC50 [2]: 0.106 µM
EC50 [3]: 499 nM

Cc1cc(CN2CCN(C(=O)OC(C)C)[C@@H](C)C2)c(C)c(Nc2nnc([C@@H](N)CO)o2)c1 [Example 36, isopropyl (2S)-4-[[3-[[5-[(1S)-1-amino-2-hydroxy-ethyl]-1,3,4-oxadiazol-2-yl]amino]-2,5-dimethyl-phenyl]methyl]-2-methyl-piperazine-1-carboxylate]
EC50 [1]: 0.0841 µM
EC50 [2]: 0.366 µM
EC50 [3]: 451 nM

Cc1cc(CN2CCN(C(=O)OC(C)C)[C@@H](C)C2)c(C)c(Nc2nnc([C@H]3C[C@@H](O)C3)o2)c1 [Example 37, isopropyl (2S)-4-[[3-[[5-(3-hydroxycyclobutyl)-1,3,4-oxadiazol-2-yl]amino]-2,5-dimethyl-phenyl]methyl]-2-methyl-piperazine-1-carboxylate]
EC50 [1]: 0.0408 µM
EC50 [2]: 0.0437 µM
EC50 [3]: 426 nM

CC[C@H](N)c1nnc(Nc2cc(Cl)cc(CN3CCN(C(=O)OC(C)C)[C@@H](C)C3)c2C)o1 [Example 38, isopropyl (2S)-4-[[3-[[5-[(1S)-1-aminopropyl]-1,3,4-oxadiazol-2-yl]amino]-5-chloro-2-methyl-phenyl]methyl]-2-methyl-piperazine-1-carboxylate]
EC50 [1]: 0.0497 µM
EC50 [2]: 0.0585 µM
EC50 [3]: 403 nM

Cc1c(CN2CCN(C(=O)OC(C)C)[C@@H](C)C2)cc(Cl)cc1Nc1nnc([C@@H](C)O)o1 [Example 39, isopropyl (2S)-4-[[5-chloro-3-[[5-[(1R)-1-hydroxyethyl]-1,3,4-oxadiazol-2-yl]amino]-2-methyl-phenyl]methyl]-2-methyl-piperazine-1-carboxylate]
EC50 [1]: 0.0292 µM
EC50 [2]: 0.0382 µM
EC50 [3]: 377 nM

Cc1c(CN2CCN(C(=O)OC(C)C)[C@@H](C)C2)cc(Cl)cc1Nc1nnc(C2COC2)o1 [Example 40, isopropyl (2S)-4-[[5-chloro-2-methyl-3-[[5-(oxetan-3-yl)-1,3,4-oxadiazol-2-yl]amino]phenyl]methyl]-2-methyl-piperazine-1-carboxylate]
EC50 [1]: 0.0212 µM
EC50 [2]: 0.212 µM
EC50 [3]: 365 nM

Cc1cc(CN2CCN(C(=O)OC(C)C)[C@@H](C)C2)c(C)c(Nc2nnc([C@@H](N)[C@@H](C)O)o2)c1 [Example 41, isopropyl (2S)-4-[[3-[[5-[(1S,2R)-1-amino-2-hydroxy-propyl]-1,3,4-oxadiazol-2-yl]amino]-2,5-dimethyl-phenyl]methyl]-2-methyl-piperazine-1-carboxylate]
EC50 [1]: 0.0911 µM
EC50 [2]: 0.215 µM
EC50 [3]: 373 nM

Cc1cc(CN2CCN(C(=O)OC(C)C)[C@@H](C)C2)c(C)c(Nc2nnc(CC#N)o2)c1 [Example 42, isopropyl (2S)-4-[[3-[[5-(cyanomethyl)-1,3,4-oxadiazol-2-yl]amino]-2,5-dimethyl-phenyl]methyl]-2-methyl-piperazine-1-carboxylate]
EC50 [1]: 0.048 µM
EC50 [2]: 0.0342 µM
EC50 [3]: 359 nM

Cc1c(CN2CCN(C(=O)OC(C)C)[C@@H](C)C2)cc(C(F)F)cc1Nc1nnc([C@H](C)O)o1 [Example 43, isopropyl (2S)-4-[[5-(difluoromethyl)-3-[[5-[(1S)-1-hydroxyethyl]-1,3,4-oxadiazol-2-yl]amino]-2-methyl-phenyl]methyl]-2-methyl-piperazine-1-carboxylate]
EC50 [1]: 0.0539 µM
EC50 [2]: 0.0635 µM
EC50 [3]: 332 nM

Cc1c(CN2CCN(C(=O)OC(C)C)[C@@H](C)C2)cc(Cl)cc1Nc1nnc(C2CCCOC2)o1 (stereo partly drawn) [Example 44, isopropyl (2S)-4-[[5-chloro-2-methyl-3-[(5-tetrahydropyran-3-yl-1,3,4-oxadiazol-2-yl)amino]phenyl]methyl]-2-methyl-piperazine-1-carboxylate]
EC50 [1]: 0.0227 µM
EC50 [2]: 0.026 µM
EC50 [3]: 330 nM

Cc1c(CN2CCN(C(=O)OC(C)C)[C@@H](C)C2)cc(Cl)cc1Nc1nnc(C2(O)CC2)o1 [Example 45, isopropyl (2S)-4-[[5-chloro-3-[[5-(1-hydroxycyclopropyl)-1,3,4-oxadiazol-2-yl]amino]-2-methyl-phenyl]methyl]-2-methyl-piperazine-1-carboxylate]
EC50 [1]: 0.042 µM
EC50 [2]: 0.0399 µM
EC50 [3]: 330 nM

Cc1c(CN2CCN(C(=O)OC(C)C)[C@@H](C)C2)cc(Cl)cc1Nc1nnc(C2(CO)CC2)o1 [Example 46, isopropyl (2S)-4-[[5-chloro-3-[[5-[1-(hydroxymethyl)cyclopropyl]-1,3,4-oxadiazol-2-yl]amino]-2-methyl-phenyl]methyl]-2-methyl-piperazine-1-carboxylate]
EC50 [1]: 0.0371 µM
EC50 [2]: 0.103 µM
EC50 [3]: 322 nM

Cc1c(CN2CCN(C(=O)OC(C)C)[C@@H](C)C2)cc(Cl)cc1Nc1nnc(C(O)C(F)(F)F)o1 (stereo partly drawn) [Example 47, isopropyl (2S)-4-[[5-chloro-2-methyl-3-[[5-(2,2,2-trifluoro-1-hydroxy-ethyl)-1,3,4-oxadiazol-2-yl]amino]phenyl]methyl]-2-methyl-piperazine-1-carboxylate]
EC50 [1]: 0.0266 µM
EC50 [2]: 0.0632 µM
EC50 [3]: 307 nM

Reference: patent US10934282B2, “Heteroaromatic modulators of the retinoid-related orphan receptor gamma” (LEO PHARMA A/S, priority 2016, dated 2021)
